The source made the active and inactive calls.
Assays:
Assay type in all cases: functional, cell-based
MDA-MB-435 = experiment: Growth inhibition of human MDA-MB-435 cells at 10 uM after 48 hrs by sulforhodamine B assay
OVCAR-4 = experiment: Growth inhibition of human OVCAR4 cells at 10 uM after 48 hrs by sulforhodamine B assay
Hs-578T = experiment: Growth inhibition of human Hs 578T cells at 10 uM after 48 hrs by sulforhodamine B assay
OVCAR-8 = experiment: Growth inhibition of human OVCAR8 cells at 10 uM after 48 hrs by sulforhodamine B assay
786-0 = experiment: Growth inhibition of human 786-0 cells at 10 uM after 48 hrs by sulforhodamine B assay
RPMI-8226 = experiment: Growth inhibition of human RPMI8226 cells at 10 uM after 48 hrs by sulforhodamine B assay
HCT-116 = experiment: Growth inhibition of human HCT116 cells at 10 uM after 48 hrs by sulforhodamine B assay
SR = experiment: Growth inhibition of human SR cells at 10 uM after 48 hrs by sulforhodamine B assay
CCRF-CEM = experiment: Growth inhibition of human CCRF-CEM cells at 10 uM after 48 hrs by sulforhodamine B assay
SN12C = experiment: Growth inhibition of human SN12C cells at 10 uM after 48 hrs by sulforhodamine B assay
RXF 393 = experiment: Growth inhibition of human RXF393 cells at 10 uM after 48 hrs by sulforhodamine B assay
SF-539 = experiment: Growth inhibition of human SF539 cells at 10 uM after 48 hrs by sulforhodamine B assay
UACC-62 = experiment: Growth inhibition of human UACC62 cells at 10 uM after 48 hrs by sulforhodamine B assay
HL-60(TB) = experiment: Growth inhibition of human HL-60(TB) cells at 10 uM after 48 hrs by sulforhodamine B assay
SF-295 = experiment: Growth inhibition of human SF295 cells at 10 uM after 48 hrs by sulforhodamine B assay
SW-620 = experiment: Growth inhibition of human SW620 cells at 10 uM after 48 hrs by sulforhodamine B assay
MOLT-4 = experiment: Growth inhibition of human MOLT4 cells at 10 uM after 48 hrs by sulforhodamine B assay
HCC 2998 = experiment: Growth inhibition of human HCC2998 cells at 10 uM after 48 hrs by sulforhodamine B assay
TK-10 = experiment: Growth inhibition of human TK10 cells at 10 uM after 48 hrs by sulforhodamine B assay
SNB-19 = experiment: Growth inhibition of human SNB19 cells at 10 uM after 48 hrs by sulforhodamine B assay
HOP-62 = experiment: Growth inhibition of human HOP62 cells at 10 uM after 48 hrs by sulforhodamine B assay
A498 = experiment: Growth inhibition of human A498 cells at 10 uM after 48 hrs by sulforhodamine B assay
UO-31 = experiment: Growth inhibition of human UO31 cells at 10 uM after 48 hrs by sulforhodamine B assay
EKVX = experiment: Growth inhibition of human EKVX cells at 10 uM after 48 hrs by sulforhodamine B assay
MCF7 = experiment: Growth inhibition of human MCF7 cells at 10 uM after 48 hrs by sulforhodamine B assay
DU-145 = experiment: Growth inhibition of human DU145 cells at 10 uM after 48 hrs by sulforhodamine B assay
U-251 = experiment: Growth inhibition of human U251 cells at 10 uM after 48 hrs by sulforhodamine B assay
SK-MEL-2 = experiment: Growth inhibition of human SK-MEL-2 cells at 10 uM after 48 hrs by sulforhodamine B assay
NCI-H460 = experiment: Growth inhibition of human NCI-H460 cells at 10 uM after 48 hrs by sulforhodamine B assay
COLO 205 = experiment: Growth inhibition of human COLO205 cells at 10 uM after 48 hrs by sulforhodamine B assay
OVCAR-3 = experiment: Growth inhibition of human OVCAR3 cells at 10 uM after 48 hrs by sulforhodamine B assay
CAKI-1 = experiment: Growth inhibition of human CAKI-1 cells at 10 uM after 48 hrs by sulforhodamine B assay
SF-268 = experiment: Growth inhibition of human SF268 cells at 10 uM after 48 hrs by sulforhodamine B assay
NCI-H522 = experiment: Growth inhibition of human NCI-H522 cells at 10 uM after 48 hrs by sulforhodamine B assay
PC-3 = experiment: Growth inhibition of human PC3 cells at 10 uM after 48 hrs by sulforhodamine B assay
SNB-75 = experiment: Growth inhibition of human SNB75 cells at 10 uM after 48 hrs by sulforhodamine B assay
M14 = experiment: Growth inhibition of human M14 cells at 10 uM after 48 hrs by sulforhodamine B assay
HT-29 = experiment: Growth inhibition of human HT-29 cells at 10 uM after 48 hrs by sulforhodamine B assay
A549 = experiment: Growth inhibition of human A549/ATCC cells at 10 uM after 48 hrs by sulforhodamine B assay
HCT-15 = experiment: Growth inhibition of human HCT15 cells at 10 uM after 48 hrs by sulforhodamine B assay
SK-MEL-5 = experiment: Growth inhibition of human SK-MEL-5 cells at 10 uM after 48 hrs by sulforhodamine B assay
K562 = experiment: Growth inhibition of human K562 cells at 10 uM after 48 hrs by sulforhodamine B assay
SK-MEL-28 = experiment: Growth inhibition of human SK-MEL-28 cells at 10 uM after 48 hrs by sulforhodamine B assay
OVCAR-5 = experiment: Growth inhibition of human OVCAR5 cells at 10 uM after 48 hrs by sulforhodamine B assay
Malme-3M = experiment: Growth inhibition of human MALME-3M cells at 10 uM after 48 hrs by sulforhodamine B assay
HOP-92 = experiment: Growth inhibition of human HOP92 cells at 10 uM after 48 hrs by sulforhodamine B assay
MDA-MB-231 = experiment: Growth inhibition of human MDA-MB-231 cells at 10 uM after 48 hrs by sulforhodamine B assay
NCI-H23 = experiment: Growth inhibition of human NCI-H23 cells at 10 uM after 48 hrs by sulforhodamine B assay
MDA-MB-468 = experiment: Growth inhibition of human MDA-MB-468 cells at 10 uM after 48 hrs by sulforhodamine B assay
T47D = experiment: Growth inhibition of human T47D cells at 10 uM after 48 hrs by sulforhodamine B assay
ACHN = experiment: Growth inhibition of human ACHN cells at 10 uM after 48 hrs by sulforhodamine B assay
KM12 = experiment: Growth inhibition of human KM12 cells at 10 uM after 48 hrs by sulforhodamine B assay
SK-OV-3 = experiment: Growth inhibition of human SKOV3 cells at 10 uM after 48 hrs by sulforhodamine B assay
LOX IMVI = experiment: Growth inhibition of human LOXIMVI cells at 10 uM after 48 hrs by sulforhodamine B assay
IGROV-1 = experiment: Growth inhibition of human IGROV1 cells at 10 uM after 48 hrs by sulforhodamine B assay
NCI/ADR-RES = experiment: Growth inhibition of human NCI-ADR-RES cells at 10 uM after 48 hrs by sulforhodamine B assay
NCI-H226 = experiment: Growth inhibition of human NCI-H226 cells at 10 uM after 48 hrs by sulforhodamine B assay
BT-549 = experiment: Growth inhibition of human BT549 cells at 10 uM after 48 hrs by sulforhodamine B assay
NCI-H322M = experiment: Growth inhibition of human NCI-H322M cells at 10 uM after 48 hrs by sulforhodamine B assay

Measured: growth inhibition (GI)

O=C1/C(=C\c2cccn2Cc2ccc(F)cc2)c2ccccc2N1c1c(Cl)cccc1Cl
inactive: all assays above

Reference: ChEMBL document CHEMBL4177730, “Rational modification of semaxanib and sunitinib for developing a tumor growth inhibitor targeting ATP binding site of tyrosine kinase” (2018)
